Assay [1] concerns JEG-3 cells. As to the kind of experiment: CellTiter-Glo luminescent cell viability assay (HTTS). The assay is classed as cell-based, human. The conditions noted are these: for Viability ↓, lowest concentration at which the mean response value exceeded the mean control value ± 2*SD (rough binning): decrease; for cell viability relative to vehicle control (rough binning): after 24 h, in at least one concentration. In short, it runs like this:
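JEG-3 cells (2,500/well) adhered overnight, then exposed 24 h to PFAS (methanol stocks; vehicle 2.5% methanol, top concentration 500 µM). Viability read by CellTiter-Glo ATP luminescence in the same wells as mitochondrial membrane potential; wells with 0 h confluence <20% or >80% excluded.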

The test system of assay [2] is JEG-3 cells. As to the kind of experiment: Mitochondrial membrane potential, JC-10 assay (HTTS). It counts as cell-based, human. The following applies: for MMP ↓, lowest concentration at which the mean response value exceeded the mean control value ± 2*SD (rough binning): 24 h, decrease; for EC50: four-parameter fit, estimates meeting inclusion criteria; for MMP relative to vehicle control (rough binning): after 24 h, in at least one concentration. A digest of the protocol: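 JEG-3 cells seeded at 2,500 per well were exposed to PFAS for 24 h at 37 °C, with 2.5% methanol vehicle. After a PBS wash, 20 μM JC-10 was added for 1 h at 37 °C. Membrane potential was taken as the green (490/525 nm) to red (540/590 nm) fluorescence ratio.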

The mark [3] stands for this setting: JEG-3 cells, 24 h exposure, read-out: MMP EC50 ± SD.
Setting [4] is: JEG-3 cells, 24 h exposure, four-parameter fit, estimates meeting inclusion criteria, read-out: Viability EC50 ± SD.
Where [5] appears, read: Homo sapiens, JEG-3, 24 h, read-out: MMP EC50 ± SD, JEG-3 cells, 24 h exposure.
Where [6] appears, read: Homo sapiens, JEG-3, 24 h, read-out: Viability EC50 ± SD, JEG-3 cells, 24 h exposure, four-parameter fit, estimates meeting inclusion criteria.

Take `N.O=C(O)C(F)(OC(F)(F)C(F)(F)C(F)(F)F)C(F)(F)F` (stereo not shown) [Ammonium perfluoro-2-methyl-3-oxahexanoate]: in assay [1] (JEG-3 cells, 24 h), the “Viability ↓, lowest concentration at which the mean response value exceeded the mean control value ± 2*SD (rough binning)” value came to 350 µM. The “cell viability relative to vehicle control (rough binning)” value in assay [1] is “reduced cell viability”.
With `O=C(O)C(F)(F)C(F)(F)C(F)(F)C(F)(F)C(F)(F)C(F)(F)C(F)(F)C(F)(F)F` [Perfluorononanoic acid], the “MMP ↓, lowest concentration at which the mean response value exceeded the mean control value ± 2*SD (rough binning)” value in assay [2] (JEG-3 cells) was 300 µM. In addition, the EC50 in assay [2] (setting [3]) is 305 ± 13.6 µM; in assay [1] (setting [4]) it was 333 ± 10.3 µM. The “MMP relative to vehicle control (rough binning)” value (“MMP relative to vehicle control” for short) in assay [2] was “reduced MMP”. For the same compound, the “Viability ↓, lowest concentration at which the mean response value exceeded the mean control value ± 2*SD (rough binning)” value in assay [1] (JEG-3 cells, 24 h) came to 350 µM. In addition, the “cell viability relative to vehicle control (rough binning)” value in assay [1] is given as “reduced cell viability”.
For the compound `NS(=O)(=O)C(F)(F)C(F)(F)C(F)(F)C(F)(F)C(F)(F)C(F)(F)C(F)(F)C(F)(F)F` [Perfluorooctanesulfonamide], the EC50 is 227 ± 370 µM in assay [2] (setting [5]); 175 ± 4.9 µM in assay [1] (setting [6]); 176 ± 5 µM in assay [1] (Homo sapiens, JEG-3, 24 h, read-out: viability EC50 ± SE, JEG-3 cells, 24 h); 176 ± 4.9 µM in assay [1] (read-out: Viability EC50 ± SD, JEG-3 cells, 24 h exposure, four-parameter fit, estimates meeting inclusion criteria).
Regarding `O=S(=O)(O)C(F)(F)C(F)(F)C(F)(F)C(F)(F)C(F)(F)C(F)(F)C(F)(F)C(F)(F)F` [Perfluorooctanesulfonic acid], the “MMP ↓, lowest concentration at which the mean response value exceeded the mean control value ± 2*SD (rough binning)” value in assay [2] (JEG-3 cells) is reported as 350 µM. The EC50 is 353 µM in assay [2] (JEG-3 cells, 24 h exposure, listed as PFOS, read-out: MMP EC50 ± SD); 353 ± 6.7 µM in assay [2] (setting [3]); 291 µM in assay [1] (JEG-3 cells, 24 h exposure, four-parameter fit, estimates meeting inclusion criteria, listed as PFOS, read-out: Viability EC50 ± SD); 291 ± 9.1 µM in assay [1] (setting [4]). Besides, the “MMP relative to vehicle control” value in assay [2] is reported as “reduced MMP”. The “Viability ↓, lowest concentration at which the mean response value exceeded the mean control value ± 2*SD (rough binning)” value in assay [1] (JEG-3 cells, 24 h) came out at 300 µM. The “cell viability relative to vehicle control (rough binning)” value in assay [1] is “reduced cell viability”.
On to `O=C(O)C(F)(F)C(F)(F)C(F)(F)C(F)(F)C(F)(F)C(F)(F)C(F)(F)F` [Perfluorooctanoic acid], for which the concentration for a half-maximal effect (EC50) is 360 ± 18 µM in assay [2] (setting [5]) and 358 ± 16.9 µM in assay [1] (setting [6]). Further, in assay [2] (Homo sapiens, JEG-3, 24 h, read-out: MMP ↓, lowest concentration at which the mean response value exceeded the mean control value ± 2*SD (rough binning)), the minimal effective concentration was 450 µM. The “MMP relative to vehicle control” value in assay [2] is listed as “reduced MMP”. The “Viability ↑, lowest concentration at which the mean response value exceeded the mean control value ± 2*SD (rough binning)” value in assay [1] (JEG-3 cells, 24 h, increase) is recorded as 200 µM.

As usually defined, the EC50 is the midpoint of the concentration-response curve.
